Assay results published in paper PMC10794144, “A novel antibiotic class targeting the lipopolysaccharide transporter” (Nature, 2024).
Values after ≈ are worked out from the molar mass of the structure shown. Read-outs that look alike come from different tables or passages of the source.

Legend:
S. aureus ATCC 29213 = experiment: organism not typed
Method: MIC determinations were performed using the broth microdilution method and in line with CLSI guidelines M07 and M100 (refs. [37],[38]). Bacterial inocula were prepared by diluting a 0.5 McFarland suspension in CAMHB or lysogeny broth (LB) specifically for A. baylyi isolates. […] MIC values of all of the tested antibiotics were read as the lowest compound concentration inhibiting bacterial growth by naked eye or beyond which the OD600 ceased to decrease.

CYP2C9 = CYP2C9 (Homo sapiens, UniProt P11712); experiment: CYP inhibition; type: in vitro ADME
CYP2D6 = CYP2D6 (Homo sapiens, UniProt P10635); experiment: CYP inhibition; type: in vitro ADME
Acetylcholinesterase = molecular target: T1, Acetylcholinesterase (Homo sapiens, UniProt P22303); experiment: Off-target screening (CEREP); type: biochemical; details: read-out: percent inhibition
T1 construct: purchased Eurofins CEREP SA
Method: (§1) Supplementary Table 1 │ Off-target activity screening f or MCP compou nds […]
(§2) The assays given in the table above were conducted at Eurofins CEREP S A (Celle-Lévescault, France) and were run as single point measurements in duplicates in the presence of 10 µ M of the test compound and reported as percent inhibition of the radioligand signal or control enzymatic activity. n.d., not

[1] = molecular target: T2, Angiotensin converting enzyme (Homo sapiens, UniProt P12821); experiment: Off-target screening (CEREP); type: biochemical; details: read-out: percent inhibition
T2 construct: purchased Eurofins CEREP SA
Method: as §1, §2

Cyclooxygenase 2 = molecular target: T3, Cyclooxygenase 2 (Homo sapiens, UniProt P35354); experiment: Off-target screening (CEREP); type: biochemical; details: read-out: percent inhibition
T3 construct: purchased Eurofins CEREP SA
T3 sequence (P35354 18-604): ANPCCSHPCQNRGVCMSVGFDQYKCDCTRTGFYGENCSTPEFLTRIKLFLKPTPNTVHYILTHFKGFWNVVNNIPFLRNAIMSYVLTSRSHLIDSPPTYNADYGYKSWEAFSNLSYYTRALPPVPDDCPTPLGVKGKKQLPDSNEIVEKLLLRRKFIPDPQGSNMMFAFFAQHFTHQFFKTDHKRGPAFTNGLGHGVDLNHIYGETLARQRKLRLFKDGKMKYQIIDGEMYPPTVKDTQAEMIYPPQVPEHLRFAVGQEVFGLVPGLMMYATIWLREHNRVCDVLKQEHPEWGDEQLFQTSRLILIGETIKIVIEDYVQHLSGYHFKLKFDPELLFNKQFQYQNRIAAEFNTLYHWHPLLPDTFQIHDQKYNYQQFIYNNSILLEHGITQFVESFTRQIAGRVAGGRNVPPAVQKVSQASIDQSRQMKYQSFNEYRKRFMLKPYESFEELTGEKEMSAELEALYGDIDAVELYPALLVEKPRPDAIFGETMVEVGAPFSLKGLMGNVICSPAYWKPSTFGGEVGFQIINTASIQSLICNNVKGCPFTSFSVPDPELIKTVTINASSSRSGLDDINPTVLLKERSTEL
Method: as §1, §2

GSK-3A = molecular target: T4, GSK-3A (Homo sapiens, UniProt P49840); experiment: Off-target screening (CEREP); type: biochemical; details: read-out: percent inhibition
T4 construct: purchased Eurofins CEREP SA
Method: as §1, §2

Matrix metalloprotease-9 = molecular target: T5, Matrix metalloprotease-9 (Homo sapiens, UniProt P14780); experiment: Off-target screening (CEREP); type: biochemical; details: read-out: percent inhibition
T5 construct: purchased Eurofins CEREP SA
Method: as §1, §2

ZAP70 kinase = molecular target: T6, ZAP70 kinase (Homo sapiens, UniProt P43403); experiment: Off-target screening (CEREP); type: biochemical; details: read-out: percent inhibition
T6 construct: purchased Eurofins CEREP SA
T6 sequence (P43403 1-619): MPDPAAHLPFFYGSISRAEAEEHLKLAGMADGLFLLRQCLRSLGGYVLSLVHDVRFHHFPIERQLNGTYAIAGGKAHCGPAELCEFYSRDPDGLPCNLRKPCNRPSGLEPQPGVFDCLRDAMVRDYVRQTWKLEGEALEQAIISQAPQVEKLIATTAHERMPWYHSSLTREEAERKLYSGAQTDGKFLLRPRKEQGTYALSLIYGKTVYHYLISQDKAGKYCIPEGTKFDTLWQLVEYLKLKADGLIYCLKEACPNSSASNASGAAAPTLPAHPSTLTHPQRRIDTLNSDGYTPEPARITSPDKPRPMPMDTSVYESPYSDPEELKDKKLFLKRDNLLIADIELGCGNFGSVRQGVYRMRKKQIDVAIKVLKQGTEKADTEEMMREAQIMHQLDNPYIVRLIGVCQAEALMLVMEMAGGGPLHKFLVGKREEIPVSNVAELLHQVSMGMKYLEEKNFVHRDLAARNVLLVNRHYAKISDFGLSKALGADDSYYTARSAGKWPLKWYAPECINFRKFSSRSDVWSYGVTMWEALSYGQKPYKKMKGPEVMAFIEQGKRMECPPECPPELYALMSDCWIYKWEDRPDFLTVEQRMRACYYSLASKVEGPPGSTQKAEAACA
Method: as §1, §2

Xanthine oxidase = molecular target: T7, Xanthine oxidase (Bos taurus, UniProt P80457); experiment: Off-target screening (CEREP); type: biochemical, bovine; details: read-out: percent inhibition
T7 construct: purchased Eurofins CEREP SA
Method: as §1, §2

[2] = Mouse pharmacokinetics study, i.v. bolus; type: in vivo; details: male CD1 mice, 1 mg/kg IV
Method: Three male CD1 mice were administered with compound formulation (0.5 mg ml^−1 in 0.9% aqueous sodium chloride solution) as an intravenous bolus dose of 1 mg per kg. Blood was sampled at 0.08, 0.25, 0.5, 1, 2, 4, 7 and 24 h after administration and the blood collecting tubes were centrifuged for 5 min at 5,200g at room temperature to isolate the plasma supernatant. The concentrations of compound in the plasma were analysed using a liquid chromatography–mass spectrometry method with a calibration range of 5–10,000 ng ml^−1. The pharmacokinetic parameters were derived from the individual concentration data and were estimated by non-compartmental analysis.

HIV-1 protease = experiment: Off-target screening (CEREP); type: biochemical; details: 10 µM, duplicates
Method: as §1, §2

Phosphodiesterase 4D2 = molecular target: T8, Phosphodiesterase 4D2 (Homo sapiens, UniProt Q08499); experiment: Off-target screening (CEREP); type: biochemical; details: read-out: percent inhibition
T8 construct: purchased Eurofins CEREP SA
Method: as §1, §2

[3] = test system: GSK-3A (second line so named); experiment: Off-target screening (CEREP); type: biochemical, human; details: 10 µM, duplicates
Method: as §1, §2

[4] = test system: Nicotinic receptor, muscle; experiment: Off-target screening (CEREP); type: binding, human; details: 10 µM, duplicates
Method: as §1, §2

[5] = test system: Nicotinic receptor, neuronal; experiment: Off-target screening (CEREP); type: binding, human; details: 10 µM, duplicates
Method: as §1, §2

T2 sequence (P12821 30-1306): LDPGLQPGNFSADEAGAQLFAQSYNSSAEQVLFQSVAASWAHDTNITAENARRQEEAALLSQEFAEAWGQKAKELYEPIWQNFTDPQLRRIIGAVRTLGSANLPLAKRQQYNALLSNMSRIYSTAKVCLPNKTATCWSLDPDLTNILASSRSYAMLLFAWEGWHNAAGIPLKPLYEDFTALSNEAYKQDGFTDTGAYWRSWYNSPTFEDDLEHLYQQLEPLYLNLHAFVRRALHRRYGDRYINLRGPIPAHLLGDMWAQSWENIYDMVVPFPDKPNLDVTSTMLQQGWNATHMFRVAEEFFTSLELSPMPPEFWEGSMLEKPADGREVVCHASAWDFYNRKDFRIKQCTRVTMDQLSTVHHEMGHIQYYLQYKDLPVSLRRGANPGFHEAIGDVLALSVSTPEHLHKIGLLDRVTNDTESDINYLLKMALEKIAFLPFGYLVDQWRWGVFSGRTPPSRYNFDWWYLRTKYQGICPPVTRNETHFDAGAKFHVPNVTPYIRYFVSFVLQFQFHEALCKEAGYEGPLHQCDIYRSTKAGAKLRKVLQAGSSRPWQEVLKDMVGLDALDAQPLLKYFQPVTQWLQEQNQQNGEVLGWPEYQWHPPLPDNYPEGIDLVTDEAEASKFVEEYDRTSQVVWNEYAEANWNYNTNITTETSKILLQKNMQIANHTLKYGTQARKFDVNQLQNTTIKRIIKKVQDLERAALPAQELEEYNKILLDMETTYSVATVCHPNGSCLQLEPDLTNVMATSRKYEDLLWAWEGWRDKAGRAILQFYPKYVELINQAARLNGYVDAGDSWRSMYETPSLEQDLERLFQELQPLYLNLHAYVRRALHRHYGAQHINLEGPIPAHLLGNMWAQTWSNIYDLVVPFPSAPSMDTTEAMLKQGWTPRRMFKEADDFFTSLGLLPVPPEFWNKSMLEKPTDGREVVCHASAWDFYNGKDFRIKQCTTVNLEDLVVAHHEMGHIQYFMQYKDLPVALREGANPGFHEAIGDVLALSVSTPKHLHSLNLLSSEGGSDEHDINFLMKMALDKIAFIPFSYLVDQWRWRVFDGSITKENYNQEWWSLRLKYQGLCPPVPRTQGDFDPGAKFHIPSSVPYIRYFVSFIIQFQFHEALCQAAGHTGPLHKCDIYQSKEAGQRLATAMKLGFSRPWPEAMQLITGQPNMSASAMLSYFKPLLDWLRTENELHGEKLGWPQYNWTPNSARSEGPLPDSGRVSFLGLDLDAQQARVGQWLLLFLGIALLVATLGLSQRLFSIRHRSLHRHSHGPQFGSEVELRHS
T5 sequence (P14780 94-707): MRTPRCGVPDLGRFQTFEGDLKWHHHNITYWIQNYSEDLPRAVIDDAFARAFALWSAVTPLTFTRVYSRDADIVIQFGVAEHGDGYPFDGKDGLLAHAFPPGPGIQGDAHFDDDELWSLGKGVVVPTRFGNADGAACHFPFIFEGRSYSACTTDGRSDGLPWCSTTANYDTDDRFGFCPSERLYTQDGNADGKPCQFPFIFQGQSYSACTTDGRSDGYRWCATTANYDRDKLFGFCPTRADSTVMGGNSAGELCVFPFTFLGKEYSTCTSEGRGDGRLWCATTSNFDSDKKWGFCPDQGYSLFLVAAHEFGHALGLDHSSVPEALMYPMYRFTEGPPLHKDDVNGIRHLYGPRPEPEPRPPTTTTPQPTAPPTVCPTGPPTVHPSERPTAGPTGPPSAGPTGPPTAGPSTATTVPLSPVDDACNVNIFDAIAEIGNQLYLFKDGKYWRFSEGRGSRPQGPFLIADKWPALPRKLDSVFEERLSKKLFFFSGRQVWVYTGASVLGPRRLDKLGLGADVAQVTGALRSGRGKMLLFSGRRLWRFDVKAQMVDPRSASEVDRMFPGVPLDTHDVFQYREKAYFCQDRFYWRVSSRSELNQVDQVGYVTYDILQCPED
T7 sequence (P80457 whole entry): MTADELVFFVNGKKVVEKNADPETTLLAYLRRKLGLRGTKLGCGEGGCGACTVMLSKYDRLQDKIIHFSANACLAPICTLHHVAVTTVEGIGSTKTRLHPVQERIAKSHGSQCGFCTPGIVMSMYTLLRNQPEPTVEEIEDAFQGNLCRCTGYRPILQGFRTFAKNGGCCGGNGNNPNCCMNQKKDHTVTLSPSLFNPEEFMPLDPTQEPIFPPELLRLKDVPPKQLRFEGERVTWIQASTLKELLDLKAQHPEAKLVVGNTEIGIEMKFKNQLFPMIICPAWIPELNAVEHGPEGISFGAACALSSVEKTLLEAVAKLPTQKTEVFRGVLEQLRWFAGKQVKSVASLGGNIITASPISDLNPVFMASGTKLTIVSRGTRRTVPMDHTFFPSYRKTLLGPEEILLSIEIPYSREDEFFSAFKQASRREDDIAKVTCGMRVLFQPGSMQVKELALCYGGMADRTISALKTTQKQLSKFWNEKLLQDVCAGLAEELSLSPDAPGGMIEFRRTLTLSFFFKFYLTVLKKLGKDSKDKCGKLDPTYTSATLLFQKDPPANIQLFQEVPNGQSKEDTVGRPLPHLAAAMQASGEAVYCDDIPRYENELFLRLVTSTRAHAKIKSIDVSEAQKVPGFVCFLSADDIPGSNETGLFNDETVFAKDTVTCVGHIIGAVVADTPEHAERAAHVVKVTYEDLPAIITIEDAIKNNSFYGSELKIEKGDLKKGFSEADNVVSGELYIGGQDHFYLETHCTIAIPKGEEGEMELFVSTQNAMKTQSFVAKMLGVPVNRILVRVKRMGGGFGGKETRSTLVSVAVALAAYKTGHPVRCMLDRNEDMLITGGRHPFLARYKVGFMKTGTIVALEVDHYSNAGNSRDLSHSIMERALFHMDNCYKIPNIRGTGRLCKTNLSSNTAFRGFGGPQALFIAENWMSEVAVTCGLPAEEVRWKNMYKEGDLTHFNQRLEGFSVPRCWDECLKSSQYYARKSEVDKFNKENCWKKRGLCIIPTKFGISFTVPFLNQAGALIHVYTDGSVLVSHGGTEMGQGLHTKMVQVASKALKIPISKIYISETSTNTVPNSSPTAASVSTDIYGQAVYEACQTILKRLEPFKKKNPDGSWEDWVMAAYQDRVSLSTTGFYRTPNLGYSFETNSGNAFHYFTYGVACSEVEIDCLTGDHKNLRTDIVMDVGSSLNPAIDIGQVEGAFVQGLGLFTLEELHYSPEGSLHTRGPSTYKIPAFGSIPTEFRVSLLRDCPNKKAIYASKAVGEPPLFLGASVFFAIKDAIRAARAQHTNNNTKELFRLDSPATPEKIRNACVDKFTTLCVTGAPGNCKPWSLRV
T4 sequence (P49840 whole entry): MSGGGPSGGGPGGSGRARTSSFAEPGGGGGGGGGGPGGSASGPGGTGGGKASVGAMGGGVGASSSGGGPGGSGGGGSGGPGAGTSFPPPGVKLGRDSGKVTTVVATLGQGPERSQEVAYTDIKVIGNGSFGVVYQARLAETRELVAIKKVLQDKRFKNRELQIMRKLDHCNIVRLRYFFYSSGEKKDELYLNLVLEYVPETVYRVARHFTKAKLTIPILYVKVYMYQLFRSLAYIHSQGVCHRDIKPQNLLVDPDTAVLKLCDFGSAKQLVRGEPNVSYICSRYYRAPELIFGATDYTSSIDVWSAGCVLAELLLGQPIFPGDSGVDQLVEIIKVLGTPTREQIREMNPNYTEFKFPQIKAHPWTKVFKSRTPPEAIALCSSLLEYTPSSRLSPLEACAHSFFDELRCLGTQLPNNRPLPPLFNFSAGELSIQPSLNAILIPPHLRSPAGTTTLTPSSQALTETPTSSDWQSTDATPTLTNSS
Chain of CYP2C9 (P11712 whole entry): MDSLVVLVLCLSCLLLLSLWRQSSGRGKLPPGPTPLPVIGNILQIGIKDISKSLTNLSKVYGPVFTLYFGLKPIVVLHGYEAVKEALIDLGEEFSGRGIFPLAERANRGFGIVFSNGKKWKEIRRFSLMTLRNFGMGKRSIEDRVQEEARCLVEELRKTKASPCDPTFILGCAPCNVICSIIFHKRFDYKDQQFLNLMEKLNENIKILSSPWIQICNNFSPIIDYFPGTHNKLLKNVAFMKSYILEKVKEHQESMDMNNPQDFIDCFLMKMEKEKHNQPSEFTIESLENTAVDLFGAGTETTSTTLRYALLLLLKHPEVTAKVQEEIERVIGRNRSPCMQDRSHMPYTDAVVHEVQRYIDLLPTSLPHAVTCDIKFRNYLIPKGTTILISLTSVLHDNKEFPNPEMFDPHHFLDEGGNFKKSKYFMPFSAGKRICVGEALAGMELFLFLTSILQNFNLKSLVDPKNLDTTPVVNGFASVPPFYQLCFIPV
T1 sequence (P22303 32-614): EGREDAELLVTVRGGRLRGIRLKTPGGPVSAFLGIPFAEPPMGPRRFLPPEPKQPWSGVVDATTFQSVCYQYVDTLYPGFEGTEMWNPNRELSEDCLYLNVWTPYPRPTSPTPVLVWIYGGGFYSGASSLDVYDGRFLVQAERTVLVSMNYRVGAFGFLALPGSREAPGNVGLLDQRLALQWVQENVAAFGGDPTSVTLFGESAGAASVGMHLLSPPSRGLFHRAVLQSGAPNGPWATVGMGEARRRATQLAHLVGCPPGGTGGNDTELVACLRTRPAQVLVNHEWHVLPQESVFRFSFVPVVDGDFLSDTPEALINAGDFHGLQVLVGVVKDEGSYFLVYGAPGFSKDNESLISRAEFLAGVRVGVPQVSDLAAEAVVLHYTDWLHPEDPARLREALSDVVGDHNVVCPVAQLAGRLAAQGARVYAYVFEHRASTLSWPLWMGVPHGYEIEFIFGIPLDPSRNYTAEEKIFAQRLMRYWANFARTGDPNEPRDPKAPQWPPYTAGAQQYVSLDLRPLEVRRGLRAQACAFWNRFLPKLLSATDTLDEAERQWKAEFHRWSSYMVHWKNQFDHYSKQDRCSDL

CN1C(=O)[C@H](CCCN)NC(=O)[C@H](CCCN)NCc2ccccc2Sc2ccccc2CNC(=O)[C@@H]1Cc1c[nH]c2ccccc12 [RO7036668]
MIC (S. aureus ATCC 29213; Gram-positive bacteria and yeast): 32 to 64 µg/mL (≈ 48.8 to 97.6 µM)
MIC (S. aureus ATCC 29213; Staphylococcus aureus, ATCC29213, CAMHB, mode of at least three replicates (RO7036668 one replicate)): 32 µg/mL (≈ 48.8 µM)
CYP inh. (2C9) (CYP2C9): > 50 µM
CYP inh. (2D6) (CYP2D6): > 50 µM
inhibition at 10 µM (Acetylcholinesterase; 10 µM, duplicates): 9%
inhibition at 10 µM ([1]; 10 µM, duplicates): -7%
inhibition at 10 µM (Cyclooxygenase 2; 10 µM, duplicates): 4%
inhibition at 10 µM (GSK-3A; 10 µM, duplicates): -12%
inhibition at 10 µM (Matrix metalloprotease-9; 10 µM, duplicates): 6%
inhibition at 10 µM (ZAP70 kinase; 10 µM, duplicates): 2%
inhibition at 10 µM (Xanthine oxidase; 10 µM, duplicates): -16%

CN1C(=O)[C@H](CCCCN)NC(=O)[C@H](CCCN)NCc2cccnc2Sc2c(Cl)ccc(Cl)c2CNC(=O)[C@@H]1Cc1c[nH]c2ccccc12 [RO7075573]
MIC (S. aureus ATCC 29213; Staphylococcus aureus, ATCC29213): > 64 µg/mL
MIC 100% (S. aureus ATCC 29213; Study LGC281440): >64 µg/mL
MIC 100% (S. aureus ATCC 29213; Study LGC282160): >64 µg/mL
MIC 100% (S. aureus ATCC 29213; Study LGC284879): >64 µg/mL
MIC 100% (S. aureus ATCC 29213; Study LGC285582): >64 µg/mL
MIC 100% (S. aureus ATCC 29213; Study LGC286210): 64 µg/mL (≈ 86.5 µM)
MIC 100% (S. aureus ATCC 29213; Study LGC293598): >64 µg/mL
MIC 100% (S. aureus ATCC 29213; Study LGC294355): >64 µg/mL
MIC 100% (S. aureus ATCC 29213; Study LGC295147): 64 µg/mL (≈ 86.5 µM)
MIC 100% (S. aureus ATCC 29213; Study LGC296813): >64 µg/mL
MIC 100% (S. aureus ATCC 29213; Study LGC299544): 64 µg/mL (≈ 86.5 µM)
MIC 100% (S. aureus ATCC 29213; Study LGC301026): >64 µg/mL
MIC 100% (S. aureus ATCC 29213; Study LGC308175): >64 µg/mL
MIC 100% (S. aureus ATCC 29213; Study ROC010): 32 µg/mL (≈ 43.3 µM)
MIC 100% (S. aureus ATCC 29213; Study ROC012): 32 µg/mL (≈ 43.3 µM)
Ames (Ames): Negative
CYP inh. (2C9) (CYP2C9): > 50 µM
CYP inh. (2D6) (CYP2D6): > 50 µM
Vss ([2]; n = 3): 0.3 L/kg
t1/2, terminal plasma half-life ([2]; n = 3): 2 h
Cl ([2]; n = 3, LC-MS, non-compartmental): 5.7 mL/min/kg
inhibition at 10 µM (Acetylcholinesterase): 4%
inhibition at 10 µM [1]: -7%
inhibition at 10 µM (Cyclooxygenase 2): -46%
inhibition at 10 µM (GSK-3A): -1%
percent inhibition (HIV-1 protease): -4%
inhibition at 10 µM (Matrix metalloprotease-9): -31%
inhibition at 10 µM (Phosphodiesterase 4D2): 0%
inhibition at 10 µM (ZAP70 kinase): -47%
percent inhibition [3]: 10%
percent inhibition [4]: 5%
percent inhibition [5]: -7%
inhibition at 10 µM (Xanthine oxidase): 6%
